Key:
[1] = tested on: schizophrenic model (MK-801) mice; assay: Novel object recognition test (NORT), MK-801 schizophrenic model, Example 2; type: in vivo, C57BL/6J mice
Procedure: (§1) Inbred C57BL/6J (B6J) mice were purchased from Charles River Laboratories Japan, Inc. (Kanagawa, Japan). The mice were housed four by four in standard cages and reared on a 12-hour light/dark cycle (lights on at 8:00 and off at 20:00) in a room where temperature and humidity were controlled. The mice had free access to standard laboratory chow MF (ORIENTAL YEAST Co., Ltd., Tokyo, Japan) and water. No special environmental enrichment was provided in the home cage. Behavioral testing was performed using males from 10:00 to 18:00.
(§2) MK-801 (FUJIFILM Wako Pure Chemical Corporation, Osaka, Japan) was diluted with physiological saline to a concentration of 1 mg/ml to prepare a stock solution, which was stored at −80° C. The MK-801 stock solution (1 mg/ml) was then further diluted with physiological saline to 20 μg/ml and stored at −20° C. as a solution for administration. The MK-801 administration solution (20 μg/ml) was thawed on the day of administration and used for administration to mice. The MK-801 administration solution (20 μg/ml) was used within one week after freezing. MK-801 is an antagonist of an NMDA (glutamatergic N-methyl-D-aspartate) receptor. Chronic administration of MK-801 to mice causes a decrease in spine density and abnormal behavior similar to schizophrenia in mice. Mice to which MK-801 was chronically administered were used as a disease model of schizophrenia. Mice to which physiological saline was administered instead of MK-801 were used as a healthy model.
(§3) Pemafibrate (Toronto Research Chemicals, Tronto, Canada) was diluted with DMSO to a concentration of 30 mg/ml and stored as a stock solution at −80° C. On the day of administration, the pemafibrate stock solution (30 mg/ml) was diluted with corn oil (Sigma-Aldrich, USA) to a concentration of 0.1 mg/ml and used for administration to mice. As a control, a DMSO solution prepared by diluting DMSO in corn oil was used for administration to mice (DMSO:corn oil=1:300).
(§4) MK-801 (0.2 mg/kg/day) or physiological saline was intraperitoneally administered to 6-week-old C57BL/6J mice (males) once a day for 2 weeks. […]

[2] = tested on: schizophrenic model (MK-801) mice; assay: Spine density analysis of prefrontal cortex pyramidal cells, Example 2; type: in vivo, C57BL/6J mice
Procedure: as §1, §2, §3, §4

[3] = tested on: mouse microglial cell line MG6; assay: qRT-PCR of cytokine expression in microglial cell line MG6 (Example 1); type: cell-based; conditions: MG6 cells, 0.03 μM or 0.1 μM, 24 hours, qRT-PCR normalized with Gapdh
Procedure: A mouse microglial cell line MG6 was used for experiments. MG6 was seeded on a 12-well plate at 5×10^4 cells/well using a DMEM (high glucose) medium containing 10% of FBS, 10 μg/ml of insulin, and 0.1 mM of 2-mercaptoethanol. The seeded MG6 was cultured in an incubator at 37° C. and a CO2 concentration of 5%. After 24 hours from the start of culture, drugs were added as follows. First, pemafibrate as the PPARα agonist was diluted with DMEM (high glucose) medium to have a final concentration of 0.03 μM or 0.1 μM using dimethylsulfoxide (DMSO) as a solvent. Then, the total amount of the medium of the well in which MG6 was seeded was replaced with the medium containing 0.03 μM or 0.1 μM of pemafibrate, or a medium to which DMSO was added as a control. Cells were collected additional 24 hours after the medium replacement.
Total RNA was extracted from the collected cells using RNeasy Mini kit (Qiagen). Reverse transcription of the total RNA was performed using GeneAce cDNA Synthesis Kit (FUJIFILM Wako Pure Chemical Corporation). THUNDERBIRD (trade name) SYBR qPCR Mix (Toyobo) was used to perform qRT-PCR by ABI7500 Real Time PCR system (Thermo Fisher Scientific). Relative gene expression was calculated by a ΔCt method and normalized with Gapdh. The following primers were used.

[4] = tested on: schizophrenic model (MK-801) mice; assay: NORT, examination of prophylaxis, Example 3; type: in vivo, C57BL/6J mice; conditions: FIG. 11
Procedure: (§5) Animals and reagents the same as in Example 2 were used.
(§6) Examination of prophylaxis: Pemafibrate (0.3 mg/kg/day) or solvent (DMSO solution) was orally administered to 6-week-old C57BL/6J mice (males) once a day for 2 weeks. Mice to which pemafibrate was administered and mice to which DMSO was administered were each divided into two groups, to which MK-801 (0.2 mg/kg/day) or physiological saline was intraperitoneally administered once a day for two weeks.
(§7) NORT was performed using a group of 12 mice. NORT was performed in a manner similar to that in Example 1.
(§8) In the examination of the prophylaxis, pemafibrate was administered to 6-week-old mice for 2 weeks, and then MK-801 was administered thereto for 2 weeks (see upper parts in FIG. 11 and FIG. 12). In the healthy model, physiological saline (saline) was administered instead of MK-801.

[5] = tested on: schizophrenic model (MK-801) mice; assay: NORT, examination of therapeutic method, Example 3; type: in vivo, C57BL/6J mice; conditions: FIG. 9
Procedure: as §5
(§9) MK-801 (0.2 mg/kg/day) or physiological saline was intraperitoneally administered to 6-week-old C57BL/6J mice (males) once a day for 2 weeks. Mice to which MK-801 was administered and mice to which physiological saline was administered were each divided into two groups, to which pemafibrate (0.3 mg/kg/day) or solvent (DMSO solution) was orally administered once a day for one week.
as §7
(§10) In the examination of the therapeutic method, a schizophrenic model in which MK-801 was administered to 6-week-old mice for 2 weeks was used (see upper parts in FIGS. 9 and 10). In the healthy model, physiological saline (saline) was administered instead of MK-801.

[6] = tested on: schizophrenic model (MK-801) mice; assay: Spine density analysis, examination of prophylaxis, Example 3; type: in vivo, C57BL/6J mice; conditions: FIG. 12
Procedure: as §5, §6
(§11) Sampling for spine density analysis was performed after completion of NORT. Spine density analysis was performed using a group of 6 mice. Spine density analysis was performed in a manner similar to that in Example 2.
as §8

[7] = tested on: schizophrenic model (MK-801) mice; assay: Spine density analysis, examination of therapeutic method, Example 3; type: in vivo, C57BL/6J mice
Procedure: as §5, §9, §11, §10

[8] = prophylaxis: pemafibrate 0.3 mg/kg/day oral 2 weeks, then MK-801 2 weeks, group (4)
[9] = schizophrenic model (MK-801(+)), pemafibrate 0.3 mg/kg/day oral 1 week, FIG. 8

C[C@]12N[C@H](Cc3ccccc31)c1ccccc12 [MK-801]
NORT dwell time, new object vs familiar object ([1]; MK-801 0.2 mg/kg/day i.p. 2 weeks, no pemafibrate, FIG. 5): no significant difference | spine density compared with healthy model (saline) ([2]; MK-801 0.2 mg/kg/day i.p. 2 weeks, no pemafibrate, FIG. 7): significantly reduced

CC[C@@H](Oc1cccc(CN(CCCOc2ccc(OC)cc2)c2nc3ccccc3o2)c1)C(=O)O [pemafibrate]
NORT dwell time around new object compared with familiar object ([1]; healthy model (MK-801(-)), pemafibrate 0.3 mg/kg/day oral 1 week, FIG. 6): significantly longer | NORT dwell time around new object compared with familiar object ([1]; schizophrenic model (MK-801(+)), pemafibrate 0.3 mg/kg/day oral 1 week after MK-801, FIG. 6): significantly longer | expression of inflammatory cytokines (IL-1b, Tnfa) ([3]; FIG. 1): inhibits the expression | expression of anti-inflammatory cytokines (IL-4, IL-10) ([3]; FIG. 2): inhibits the expression | NORT dwell time around new object compared with familiar object ([4]; prophylaxis: healthy models (saline), with pemafibrate): significantly longer | NORT dwell time around new object compared with familiar object [4, 8]: significantly longer | spine density compared with healthy model [2, 9]: no significant difference | spine density compared with pemafibrate non-administration group of schizophrenic model [2, 9]: significantly increased | NORT dwell time around new object compared with familiar object ([5]; therapeutic: healthy models (saline), with pemafibrate): significantly longer | NORT dwell time around new object compared with familiar object ([5]; therapeutic: schizophrenic model group (4), pemafibrate 0.3 mg/kg/day oral 1 week after MK-801 2 weeks): significantly longer | decrease in spine density caused by MK-801 ([6]; prophylaxis: group (4) vs non-administration group (3)): suppressed | spine density compared with healthy models [6, 8]: no significant difference | effect on spine density of schizophrenic model ([7]; therapeutic: group (4) vs non-administration group (3), FIG. 10): restores the spine density | spine density compared with healthy models ([7]; therapeutic: schizophrenic model group (4), pemafibrate 0.3 mg/kg/day oral 1 week after MK-801, FIG. 10): no significant difference
